From patent US20210186970A1, “SELECTIVE CALCIUM CHANNEL ANTAGONISTS” (Northwestern University, priority 2011, published 2021)
Like-named read-outs stand apart in the source and are kept apart here.

How the values were obtained:
[1] = target: Cav1.2 L-type Ca channels (Oryctolagus cuniculus, UniProt P15381); test: FLIPR Fluo-8 calcium assay, Cav1.2 channel inhibition in HEK293 cells
[2] = target: T1, Cav1.3 L-type Ca channels (Rattus norvegicus, UniProt P27732); test: FLIPR Fluo-8 calcium assay, Cav1.3 channel inhibition in HEK293 cells; type: cell-based
T1 construct: expressed in transfected cells; host or cells: HEK293
T1 sequence (P27732 whole entry): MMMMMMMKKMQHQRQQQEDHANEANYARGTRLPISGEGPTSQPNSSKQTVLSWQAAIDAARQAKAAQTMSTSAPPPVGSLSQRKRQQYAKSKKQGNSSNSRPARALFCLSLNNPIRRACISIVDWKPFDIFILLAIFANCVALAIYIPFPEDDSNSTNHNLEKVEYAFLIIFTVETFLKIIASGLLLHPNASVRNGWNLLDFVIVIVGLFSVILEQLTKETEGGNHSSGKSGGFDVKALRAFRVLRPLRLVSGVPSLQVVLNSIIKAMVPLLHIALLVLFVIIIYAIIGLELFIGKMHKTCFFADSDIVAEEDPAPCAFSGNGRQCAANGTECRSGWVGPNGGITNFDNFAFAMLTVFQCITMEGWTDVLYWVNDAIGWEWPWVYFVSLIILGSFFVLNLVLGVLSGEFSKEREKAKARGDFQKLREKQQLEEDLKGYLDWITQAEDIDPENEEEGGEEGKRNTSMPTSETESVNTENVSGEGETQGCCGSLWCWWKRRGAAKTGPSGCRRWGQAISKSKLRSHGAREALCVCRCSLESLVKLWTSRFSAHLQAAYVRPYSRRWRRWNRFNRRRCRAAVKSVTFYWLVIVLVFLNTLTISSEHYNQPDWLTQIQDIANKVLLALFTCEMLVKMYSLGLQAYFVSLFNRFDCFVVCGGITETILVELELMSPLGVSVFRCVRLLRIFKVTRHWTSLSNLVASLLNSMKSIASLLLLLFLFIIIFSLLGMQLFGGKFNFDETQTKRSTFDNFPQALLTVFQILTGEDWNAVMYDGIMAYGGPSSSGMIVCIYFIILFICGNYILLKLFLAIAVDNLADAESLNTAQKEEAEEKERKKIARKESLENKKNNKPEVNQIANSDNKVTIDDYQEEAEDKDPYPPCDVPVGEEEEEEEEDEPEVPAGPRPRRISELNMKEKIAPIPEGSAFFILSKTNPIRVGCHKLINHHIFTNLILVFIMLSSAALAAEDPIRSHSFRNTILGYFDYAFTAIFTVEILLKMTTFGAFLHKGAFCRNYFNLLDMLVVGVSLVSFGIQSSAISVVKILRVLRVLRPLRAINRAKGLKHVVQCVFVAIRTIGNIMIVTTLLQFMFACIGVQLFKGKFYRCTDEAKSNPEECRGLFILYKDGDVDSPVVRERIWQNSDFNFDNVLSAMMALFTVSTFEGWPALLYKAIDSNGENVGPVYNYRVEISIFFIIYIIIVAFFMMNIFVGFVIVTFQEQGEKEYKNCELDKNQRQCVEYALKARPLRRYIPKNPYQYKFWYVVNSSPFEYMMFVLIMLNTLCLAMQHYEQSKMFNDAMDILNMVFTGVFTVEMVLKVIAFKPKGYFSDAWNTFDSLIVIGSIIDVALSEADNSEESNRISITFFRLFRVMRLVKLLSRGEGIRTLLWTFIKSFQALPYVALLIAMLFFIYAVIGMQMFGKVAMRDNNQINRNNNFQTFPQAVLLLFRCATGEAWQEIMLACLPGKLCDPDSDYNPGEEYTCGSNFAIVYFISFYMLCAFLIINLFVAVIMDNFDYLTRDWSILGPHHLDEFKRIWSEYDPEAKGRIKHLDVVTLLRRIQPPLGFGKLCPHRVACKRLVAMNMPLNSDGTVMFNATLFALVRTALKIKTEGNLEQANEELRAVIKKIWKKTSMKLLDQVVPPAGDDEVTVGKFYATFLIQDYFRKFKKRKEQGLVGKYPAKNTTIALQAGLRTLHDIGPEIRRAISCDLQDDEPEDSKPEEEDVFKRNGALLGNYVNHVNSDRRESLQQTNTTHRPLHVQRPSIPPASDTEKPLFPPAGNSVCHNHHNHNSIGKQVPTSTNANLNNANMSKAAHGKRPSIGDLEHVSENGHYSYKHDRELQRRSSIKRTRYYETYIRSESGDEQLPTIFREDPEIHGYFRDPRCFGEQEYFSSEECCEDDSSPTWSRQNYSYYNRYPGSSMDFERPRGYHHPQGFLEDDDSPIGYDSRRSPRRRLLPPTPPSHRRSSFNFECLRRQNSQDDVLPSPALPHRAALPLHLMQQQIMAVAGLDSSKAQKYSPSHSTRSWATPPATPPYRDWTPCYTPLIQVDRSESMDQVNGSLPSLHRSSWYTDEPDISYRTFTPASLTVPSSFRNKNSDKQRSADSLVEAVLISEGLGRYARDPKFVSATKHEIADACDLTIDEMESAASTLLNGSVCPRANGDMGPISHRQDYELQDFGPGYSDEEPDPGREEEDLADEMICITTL
T1 sequence (P54284 whole entry partner): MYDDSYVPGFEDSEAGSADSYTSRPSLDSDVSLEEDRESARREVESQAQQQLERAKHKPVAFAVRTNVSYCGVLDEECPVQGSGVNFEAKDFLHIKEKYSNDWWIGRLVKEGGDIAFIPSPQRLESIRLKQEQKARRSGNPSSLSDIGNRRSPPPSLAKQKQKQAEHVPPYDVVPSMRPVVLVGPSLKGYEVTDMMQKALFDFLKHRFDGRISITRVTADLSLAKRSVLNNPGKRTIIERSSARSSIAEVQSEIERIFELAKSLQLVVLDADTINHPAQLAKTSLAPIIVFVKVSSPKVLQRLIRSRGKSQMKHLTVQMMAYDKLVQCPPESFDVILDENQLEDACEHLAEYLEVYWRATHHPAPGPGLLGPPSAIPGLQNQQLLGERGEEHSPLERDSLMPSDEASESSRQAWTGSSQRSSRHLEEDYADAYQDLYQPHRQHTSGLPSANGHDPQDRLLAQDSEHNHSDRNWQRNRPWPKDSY
T1 sequence (P54289 25-956 partner limits assumed): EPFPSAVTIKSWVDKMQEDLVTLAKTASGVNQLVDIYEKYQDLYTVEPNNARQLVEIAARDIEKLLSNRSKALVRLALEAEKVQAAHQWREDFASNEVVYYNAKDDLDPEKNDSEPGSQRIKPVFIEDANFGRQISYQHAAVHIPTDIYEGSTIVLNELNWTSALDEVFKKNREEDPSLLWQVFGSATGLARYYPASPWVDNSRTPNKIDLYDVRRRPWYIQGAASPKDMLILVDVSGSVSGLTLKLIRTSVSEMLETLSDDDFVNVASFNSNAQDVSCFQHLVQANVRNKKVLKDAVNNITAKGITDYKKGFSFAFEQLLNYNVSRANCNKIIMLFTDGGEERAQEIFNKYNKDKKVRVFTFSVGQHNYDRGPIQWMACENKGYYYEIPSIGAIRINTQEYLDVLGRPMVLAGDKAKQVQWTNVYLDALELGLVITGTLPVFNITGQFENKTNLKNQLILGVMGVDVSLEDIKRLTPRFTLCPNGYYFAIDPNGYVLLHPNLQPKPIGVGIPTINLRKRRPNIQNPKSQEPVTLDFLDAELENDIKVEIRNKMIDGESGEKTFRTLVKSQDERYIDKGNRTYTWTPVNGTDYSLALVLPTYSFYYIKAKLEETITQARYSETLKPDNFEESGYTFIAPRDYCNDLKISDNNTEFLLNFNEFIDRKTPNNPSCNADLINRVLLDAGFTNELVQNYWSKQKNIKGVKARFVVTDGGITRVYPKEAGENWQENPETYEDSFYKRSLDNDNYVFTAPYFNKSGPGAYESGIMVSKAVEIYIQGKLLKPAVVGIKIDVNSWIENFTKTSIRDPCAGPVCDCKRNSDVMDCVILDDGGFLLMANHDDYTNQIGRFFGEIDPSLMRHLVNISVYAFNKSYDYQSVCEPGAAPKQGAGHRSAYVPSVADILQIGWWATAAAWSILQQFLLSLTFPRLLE
T1 sequence (P54289 957-1103 partner limits assumed): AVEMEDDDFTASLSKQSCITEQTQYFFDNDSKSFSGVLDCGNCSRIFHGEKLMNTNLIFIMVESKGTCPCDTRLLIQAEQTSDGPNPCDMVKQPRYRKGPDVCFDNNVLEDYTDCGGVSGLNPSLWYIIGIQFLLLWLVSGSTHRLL

[3] = IC50 (μM) Cav1.2, third library, FLIPR, HEK293, value (±SD)
[4] = IC50 (μM) Cav1.3, third library, FLIPR, HEK293, value (±SD)
[5] = third library, ratio of IC50 Cav1.2 to Cav1.3
[6] = IC50 (μM) CaV1.3, first library, FLIPR, HEK293, value (±SD)
[7] = first library, ratio of IC50 Cav1.2 to Cav1.3
[8] = IC50 (μM) CaV1.2, first library, FLIPR, HEK293, value (±SD)
[9] = IC50 (μM) Cav1.2, second library, FLIPR, HEK293, value (±SD)
[10] = IC50 (μM) Cav1.3, second library, FLIPR, HEK293, value (±SD)
[11] = second library, ratio of IC50 Cav1.2 to Cav1.3
[12] = first library, FLIPR, HEK293, value (±SD), read-out: IC50 (μM) CaV1.3
[13] = third library, FLIPR, HEK293, value (±SD), read-out: IC50 (μM) Cav1.3

Compound	IC50 [2, 6]	Selectivity [2, 7]	IC50 [1, 8]	other results
O=C1CC(=O)N(CC2CCCCC2)C(=O)N1CCc1ccc(Cl)cc1 [Compound 110]	–	–	–	IC50 [1, 3]: 46.8 µM; IC50 [2, 4]: 1.7 µM; Selectivity [2, 5]: 27.3
O=C1CC(=O)N(CCc2ccc3ccccc3c2)C(=O)N1CCc1ccc(Cl)cc1 [Compound 33]	1.1 µM	1.2	–	IC50 [1]: 1.4 µM
O=C1CC(=O)N(CCc2cccc([N+](=O)[O-])c2)C(=O)N1CCCc1ccccc1 [Compound 58]	10.4 µM	0.9	9.5 µM	–
O=C1CC(=O)N(c2cccc(F)c2)C(=O)N1CCc1cccc(Cl)c1 [Compound 103]	–	–	–	IC50 [1, 3]: 9.7 µM; IC50 [2, 4]: 18.6 µM; Selectivity [2, 5]: 0.5
O=C1CC(=O)N(CCc2ccc(Cl)cc2)C(=O)N1CCCCc1ccccc1 [Compound 26]	0.9 µM	0.9	0.8 µM	–
O=C1CC(=O)N(Cc2ccc(Cl)cc2)C(=O)N1CCCc1ccccc1 [Compound 59]	21.9 µM	1.2	26 µM	–
O=C1CC(=O)N(CCc2ccc(Cl)cc2Cl)C(=O)N1CCc1ccc(Cl)cc1 [Compound 13]	1.8 µM	1.5	2.8 µM	–
O=C1CC(=O)N(CCc2cccc(C(F)(F)F)c2)C(=O)N1CCc1ccc(Cl)cc1 [Compound 20]	0.4 µM	6.2	2.8 µM	–
CC(C)(C)N1C(=O)CC(=O)N(CCc2cccc(C(F)(F)F)c2)C1=O [Compound 106]	–	–	–	IC50 [1, 3]: 6.1 µM; IC50 [2, 4]: 1.1 µM; Selectivity [2, 5]: 5.7
O=C1CC(=O)N(CCc2ccc(Br)cc2)C(=O)N1CCCCc1ccccc1 [Compound 40]	1.1 µM	1.9	2 µM	–
CCCCCCCCN1C(=O)CC(=O)N(CCc2ccc(Cl)cc2)C1=O [Compound 28]	1.5 µM	1.9	2.8 µM	–
Cc1ccc(CCN2C(=O)CC(=O)N(C3CCCC3)C2=O)cc1 [Compound 98]	–	–	–	IC50 [1, 3]: 35.8 µM; IC50 [2, 4]: 1.7 µM; Selectivity [2, 5]: 20.7
O=C1CC(=O)N(CCc2ccc(Cl)c(Cl)c2)C(=O)N1CCc1ccc(Cl)cc1 [Compound 14]	1.9 µM	0.7	1.3 µM	–
O=C(O)c1cccc(CCN2C(=O)CC(=O)N(C3CCCCC3)C2=O)c1 [Compound 89]	–	–	–	IC50 [1, 9]: 64.7 µM; IC50 [2, 10]: 73 µM; Selectivity [2, 11]: 0.9
O=C1CC(=O)N(CCc2ccc([N+](=O)[O-])cc2)C(=O)N1CCCCc1ccccc1 [Compound 46]	3.5 µM	1.2	4.1 µM	–
O=C1CC(=O)N(CCc2ccc3ccccc3c2)C(=O)N1CCc1ccc(Cl)c(Cl)c1 [Compound 63]	4 µM	1.0	3.8 µM	–
O=C1CC(=O)N(CCc2ccc(Cl)cc2)C(=O)N1CCc1ccc(Cl)cc1 [Compound 11]	1.8 µM	1.2	2.1 µM	–
C=CCOC(=O)[C@H](Cc1ccccc1)N1C(=O)CC(=O)N(CCc2ccc(Cl)cc2)C1=O [Compound 37]	9.4 µM	1.0	9.1 µM	–
O=C1CC(=O)N(CCc2c(Cl)cccc2Cl)C(=O)N1CCc1ccc(Cl)cc1 [Compound 15]	2.7 µM	0.7	1.9 µM	–
COC(=O)[C@H](CC(C)C)N1C(=O)CC(=O)N(CCc2ccc(Cl)cc2)C1=O [Compound 36]	20.6 µM	0.8	17.1 µM	–
CC(CN1C(=O)CC(=O)N(C2CCCC2)C1=O)c1ccccc1 (racemic) [Compound 96]	–	–	–	IC50 [1, 3]: 16.9 µM; IC50 [2, 4]: 1 µM; Selectivity [2, 5]: 17.6
O=C1CC(=O)N(CCc2ccc3ccccc3c2)C(=O)N1CCc1ccc2ccccc2c1 [Compound 62]	2.9 µM	0.6	1.8 µM	–
O=C1CC(=O)N(C2CCc3ccccc32)C(=O)N1CCCCc1ccccc1 (stereo not shown) [Compound 52]	5.3 µM	1.1	5.7 µM	–
O=C1CC(=O)N(C2CCCc3ccccc32)C(=O)N1CCc1ccc(Cl)cc1 (stereo not shown) [Compound 30]	5.6 µM	2.3	12.8 µM	–
O=C1CC(=O)N(CC2CCCCC2)C(=O)N1CCc1cccc(Cl)c1 [Compound 109]	–	–	–	IC50 [1, 3]: 44.6 µM; IC50 [2, 4]: 1.5 µM; Selectivity [2, 5]: 30.5
CCCCCCCCN1C(=O)CC(=O)N(CCCc2ccccc2)C1=O [Compound 60]	–	2.5	2.6 µM	IC50 [2, 12]: 1.1 µM

Compound	IC50 [2, 6]	Selectivity [2, 7]	IC50 [1, 8]	other results
O=C1CC(=O)N(CCc2cccc(F)c2)C(=O)N1CCCc1ccccc1 [Compound 56]	1.6 µM	1.5	2.5 µM	–
O=C1CC(=O)N(C2Cc3ccccc3C2)C(=O)N1CCc1ccc(Cl)cc1 [Compound 31]	1.3 µM	2.2	3 µM	–
CC(C)(C)N1C(=O)CC(=O)N(CCc2cccc(Cl)c2)C1=O [Compound 105]	–	–	–	IC50 [1]: 7.2 µM; IC50 [2, 4]: 10.5 µM; Selectivity [2, 5]: 0.7
O=C1CC(=O)N(CCc2ccc3ccccc3c2)C(=O)N1CCCCc1ccccc1 [Compound 53]	1.9 µM	1.3	2.5 µM	–
O=C1CC(=O)N(CCc2cccc(Cl)c2)C(=O)N1CCc1ccc(Cl)cc1 [Compound 12]	1.9 µM	2.3	4.4 µM	–
CN1C(=O)CC(=O)N(Cc2cccc([N+](=O)[O-])c2)C1=O [Compound 69]	–	–	–	IC50 [1]: 167 µM
O=C1CC(=O)N(Cc2cccc([N+](=O)[O-])c2)C(=O)N1CCCc1ccccc1 [Compound 57]	16.5 µM	0.8	13 µM	–
O=C1CC(=O)N(CCc2ccc(F)cc2)C(=O)N1CCCc1ccccc1 [Compound 55]	–	1.7	2.2 µM	IC50 [2, 12]: 1.3 µM
CCCCCCCCN1C(=O)CC(=O)N(CCc2ccc3ccccc3c2)C1=O [Compound 67]	–	4.8	8.9 µM	IC50 [2, 12]: 1.9 µM
O=C1CC(=O)N(C2C3CC4CC(C3)CC2C4)C(=O)N1CCc1ccc(Cl)cc1 (stereo not shown) [Compound 116]	–	–	–	IC50 [1, 3]: 40.4 µM; IC50 [2, 4]: 2.5 µM; Selectivity [2, 5]: 18.3
CC(CN1C(=O)CC(=O)N(CCc2ccc(Cl)cc2)C1=O)c1ccccc1 (stereo not shown) [Compound 21]	1.3 µM	5.0	6.2 µM	–
O=C1CC(=O)N(CCc2cccc([N+](=O)[O-])c2)C(=O)N1CCc1ccc(Cl)cc1 [Compound 24]	2.7 µM	1.0	2.6 µM	–
O=C1CC(=O)N(CCc2cccc([N+](=O)[O-])c2)C(=O)N1CCc1cccc([N+](=O)[O-])c1 [Compound 70]	–	–	–	IC50 [1]: 173 µM
O=C1CC(=O)N(C2CCCCCC2)C(=O)N1CCc1cccc(Cl)c1 [Compound 91]	–	–	–	IC50 [1, 3]: 45.6 µM; IC50 [2, 4]: 2.5 µM; Selectivity [2, 5]: 18.5
O=C1CC(=O)N(CCc2ccc(Cl)cc2)C(=O)N1CCc1ccc(F)cc1 [Compound 18]	1.1 µM	3.1	3.3 µM	–
N#Cc1ccc(CCN2C(=O)CC(=O)N(C3CCCCC3)C2=O)cc1 [Compound 78]	–	–	–	IC50 [1, 9]: 56 µM; IC50 [2, 10]: 49.8 µM; Selectivity [2, 11]: 1.1
O=C1CC(=O)N(C2Cc3ccccc3C2)C(=O)N1CCCCc1ccccc1 [Compound 51]	–	1.5	4.9 µM	IC50 [2, 12]: 3.3 µM
O=C1CC(=O)N(Cc2ccc([N+](=O)[O-])cc2)C(=O)N1CCCCc1ccccc1 [Compound 45]	7.7 µM	0.6	4.4 µM	–
O=C1CC(=O)N([C@H]2C[C@@H]3CC[C@H]2C3)C(=O)N1CCc1cccc(Cl)c1 (racemic) [Compound 112]	–	–	–	IC50 [1, 3]: 6.3 µM; IC50 [2, 13]: 1.9 µM
O=C1CC(=O)N([C@@H]2C[C@@H]3CC[C@H]2C3)C(=O)N1CCc1cccc(Cl)c1 (racemic) [Compound 9, N-(3-chlorophenethyl)-N′-(+)-endo-norbornyl-pyrimidine-2,4,6-(1H,3H,5H)-trione]	–	–	–	IC50 ([1]; IC50 (μM) Cav1.2, Table 4, 12 concentration points (0.1 nM~100 μM) in duplicate): 20.1 µM; IC50 [1, 3]: 20.1 µM; IC50 ([2]; Table 4, 12 concentration points (0.1 nM~100 μM) in duplicate, read-out: IC50 (μM) Cav1.3): 0.8 µM; IC50 ([2]; read-out: IC50 with Cav1.3): 0.8 µM; IC50 [2, 13]: 0.8 µM
Cc1ccc(CCN2C(=O)CC(=O)N(CCCCc3ccccc3)C2=O)cc1 [Compound 41]	1.1 µM	14.1	15.5 µM	–
O=C1CC(=O)N(C2CCCCC2)C(=O)N1Cc1ccc(Cl)cc1 [Compound 82]	–	–	–	IC50 [1, 9]: 119 µM; Selectivity [2]: 14.7; IC50 [2, 10]: 8.1 µM
O=C1CC(=O)N(C2CC2)C(=O)N1CCc1ccc(Cl)cc1 [Compound 102]	–	–	–	IC50 [1]: 5 µM; IC50 [2, 4]: 19.6 µM; Selectivity [2, 5]: 0.3
O=C1CC(=O)N(C2CCCCCC2)C(=O)N1CCc1cccc(C(F)(F)F)c1 [Compound 90]	–	–	–	IC50 [1, 3]: 5.7 µM; IC50 [2, 4]: 1.7 µM; Selectivity [2, 5]: 3.4
O=C1CC(=O)N(C2CCCCC2)C(=O)N1Cc1cccc([N+](=O)[O-])c1 [Compound 83]	–	–	–	IC50 [1, 9]: 59.5 µM; IC50 [2, 10]: 48.2 µM; Selectivity [2, 11]: 1.2
COC(=O)CN1C(=O)CC(=O)N(CCc2ccc(Cl)cc2)C1=O [Compound 34]	108 µM	–	–	–
